Results taken from ChEMBL document CHEMBL6083195, “Cornulacin: a new isoflavone from Cornulaca monacantha and its isolation, structure elucidation and cytotoxicity through EGFR-mediated apoptosis” (RSC Med Chem, 2024).

Legend:
[1] = test system: PANC-1; assay: Cytotoxicity against human PANC-1 cells by MTT assay; format: functional, cell-based
[2] = test system: A2780; assay: Cytotoxicity against human A2780 cells by MTT assay; format: functional, cell-based
[3] = test system: KB; assay: Cytotoxicity against human KB cells; format: functional, cell-based
[4] = test system: A2780; assay: Induction of apoptosis in human A2780 cells assessed as fold increase in P53 mRNA level at IC50 incubated for 48 hrs by RT-PCR analysis relative to control; format: functional
[5] = test system: A2780; assay: Induction of apoptosis in human A2780 cells assessed as fold increase in caspase-3 mRNA level at IC50 incubated for 48 hrs by RT-PCR analysis relative to control; format: functional
[6] = test system: WISH; assay: Cytotoxicity against human WISH cells by MTT assay; format: functional, cell-based
[7] = test system: A2780; assay: Induction of cell cycle arrest in human A2780 cells assessed as accumulation at G1 phase at IC50 incubated for 48 hrs by flow cytometry (reference value: 41.8 %); format: functional
[8] = test system: A2780; assay: Induction of cell cycle arrest in human A2780 cells assessed as accumulation at G2/M phase at IC50 incubated for 48 hrs by flow cytometry (reference value: 27.5 %); format: functional
[9] = test system: A2780; assay: Induction of apoptosis in human A2780 cells assessed as total apoptotic cell death at IC50 incubated for 48 hrs by Annexin V-FITC/PI staining based flow cytometry (reference value: 0.955 %); format: functional
[10] = test system: A2780; assay: Induction of apoptosis in human A2780 cells assessed as fold decrease in Bcl-2 mRNA level at IC50 incubated for 48 hrs by RT-PCR analysis relative to control; format: functional
[11] = test system: A2780; assay: Induction of cell cycle arrest in human A2780 cells assessed as accumulation at S phase at IC50 incubated for 48 hrs by flow cytometry (reference value: 30.6 %); format: functional
[12] = test system: A2780; assay: Induction of apoptosis in human A2780 cells assessed as fold increase in Bax mRNA level at IC50 incubated for 48 hrs by RT-PCR analysis relative to control; format: functional
[13] = test system: A2780; assay: Induction of apoptosis in human A2780 cells assessed as late apoptotic cells at IC50 incubated for 48 hrs by Annexin V-FITC/PI staining based flow cytometry (reference value: 0.23 %); format: functional
[14] = test system: A2780; assay: Induction of apoptosis in human A2780 cells assessed as necrotic cells at IC50 incubated for 48 hrs by Annexin V-FITC/PI staining based flow cytometry (reference value: 1.52 %); format: functional
[15] = test system: A2780; assay: Induction of apoptosis in human A2780 cells assessed as early apoptotic cells at IC50 incubated for 48 hrs by Annexin V-FITC/PI staining based flow cytometry (reference value: 0.72 %); format: functional
[16] = test system: A2780; assay: Induction of apoptosis in human A2780 cells assessed as fold increase in caspase-8 mRNA level at IC50 incubated for 48 hrs by RT-PCR analysis relative to control; format: functional
[17] = test system: A2780; assay: Induction of apoptosis in human A2780 cells assessed as fold increase in caspase-9 mRNA level at IC50 incubated for 48 hrs by RT-PCR analysis relative to control; format: functional

## COc1cc(/C=C/C(=O)NCCc2ccc(O)cc2)ccc1O [N-TRANS-FERULOYL TYRAMINE]
[1]
  IC50: 3.4 µM
[2]
  IC50: 9.1 µM

## COc1cc(OC)c(-c2coc3c4c(c(OC)cc3c2=O)OC(C)(C)C=C4)cc1OC
[3]
  IC50: 2 µM

## C#Cc1cccc(Nc2ncnc3cc(OCCOC)c(OCCOC)cc23)c1 [ERLOTINIB]
[1]
  IC50: 2.17 µM
[2]
  IC50: 1.13 µM

## COc1cc(/C=C/C(=O)NCCc2ccc(O)c(OC)c2)ccc1O
[1]
  IC50: 7 µM
[2]
  IC50: 2.9 µM

## COCc1c(O)cc2occ(-c3ccccc3O)c(=O)c2c1OC
[4]
  fold change (FC): 6.7
[5]
  fold change (FC): 8.1
[1]
  IC50: 6.4 µM
[6]
  IC50: ≥ 100 µM
[7]
  Activity: 46.2%
[8]
  Activity: 10.48%
[9]
  Activity: 43.65%
[10]
  fold change (FC): 0.3
[11]
  Activity: 43.3%
[2]
  IC50: 2.1 µM
[12]
  fold change (FC): 5.4
[13]
  Activity: 14.48%
[14]
  Activity: 7.54%
[15]
  Activity: 29.17%
[16]
  fold change (FC): 6.09
[17]
  fold change (FC): 8.08

## O=C(/C=C/c1ccc(O)c(O)c1)NCCc1ccc(O)cc1
[1]
  IC50: 7.2 µM
[2]
  IC50: 11.2 µM

## COc1cc([C@H]2c3cc(O)c(OC)cc3/C(=C\C(=O)NCCc3ccc(O)cc3)[C@H]2C(=O)NCCc2ccc(O)cc2)ccc1O
[1]
  IC50: 24.1 µM
[2]
  IC50: 31.2 µM

## COc1cc(/C=C(\Oc2ccc(/C=C/C(=O)NCCc3ccc(O)cc3)cc2OC)C(=O)NCCc2ccc(O)cc2)ccc1O
[1]
  IC50: 19.3 µM
[2]
  IC50: 25.1 µM
